Results on five compounds are retold here after PMC10373627, “The Stability of Synthetic Cathinones and the Study of Potential Intake Biomarkers in the Biological Material from a Case of 3-CMC Poisoning” (Journal of Analytical Toxicology, 2023).

Like-named read-outs stand apart in the source and are kept apart here.

A short description of data set [1]: Stability study in the authentic autopsy blood sample (HPLC-ESI-MS-MS / HPLC-ESI-MS). It is filed as in vitro ADME, human. On the procedure: (§1) Due to the positive result of the identification analysis of the fluid from the Venflon, the biological material (blood and urine) was properly preserved on the same day. In the case of the urine sample, the pH was first measured using a universal indicator paper (pH = 6.0). The blood sample was preserved in a tube with sodium fluoride (NaF) and potassium oxalate (KOx). The biological material was divided into three parts, each with a volume of 1 mL. The first part was stored at 4°C. The second part was acidified with 1 M HCl: 100 µL of HCl was added to 1 mL of the blood sample to obtain pH <7, and 50 µL of HCl was added to 1 mL of the urine sample to obtain pH = 4.2. The third part of the blood and urine samples was stored at −30°C.
(§2) The 200 µL of blank, calibration and quality control (QC) blood samples and the person’s blood and urine samples were enriched with the addition of methanolic IS 4-CEC-d5. For the blood sample, the final IS concentration was 100 ng/mL, and for the urine sample, it was 1,000 ng/mL. A homogenizing element in the form of a 5-mm-diameter stainless steel bead was added to the Eppendorf Tubes containing the samples. The samples were then deproteinized with frozen acetonitrile (400 µL). The samples were then centrifuged, and the supernatant was evaporated in a stream of nitrogen in a 40°C sand bath. The dry residue was dissolved in 100 µL of a mixture of phase A and B solution in a volume ratio of 60:40 (v/v). Mobile phase A is a mixture of 2 mM ammonium formate and 0.2% formic acid solution in water (v/v), and phase B is a mixture of 2 mM ammonium formate and 0.2% formic acid solution in acetonitrile (v/v).
An Agilent 1200 liquid chromatograph (Agilent) equipped with a binary pump (G1312 A) and an autosampler (G1329 A) was used. The chromatographic separation was performed with a Poroshell 120 EC-C18 column (3.0 × 100 mm, particle size 2.7 μm, Agilent). The column was thermostated at 40°C.
The flow of the mobile phases through the chromatographic column occurred at a programmed gradient of mobile phase composition and flow rate (initially, 95% of phase A and 5% of phase B at a flow rate of 0.5 mL/min; then, the proportion of phases was increased linearly to 90% of phase B at a flow rate of 1.0 mL/min at 10 minutes, and the condition was maintained for 2 min). Subsequently, the proportion of phases was increased linearly to 95% of phase B at a flow rate of 1.0 mL/min at 15 minutes. The volume of the samples injected into the chromatographic column was 15 μL.
A 6410 triple-quadrupole mass spectrometer (Agilent) with an electrospray ionization (ESI) source, operated under a positive mode, was used. The operational parameters of the ESI source were as follows: vaporizing temperature 350 °C, pressure of the nebulizing gas 40 psi, flow of the drying gas 9 L/min and capillary potential 3.5 kV. The multiple reaction monitoring (MRM) was employed. The fragmentation parameters of the analyzed compounds are listed in Table I. For the analysis of the selected potential biomarker, dihydro-3-CMC, the total ion current scanning mode was used in the m/z range of 50–650 amu.
While planning the experiment, the limitation was the amount of the biological material secured during the autopsy, as it came from an authentic case. The reference point (day 1) was the extraction of the biological material stored at 4°C for 24 hours using the procedure described earlier. The deproteination was performed the day after the autopsy was conducted, and the biological material was preserved. Subsequently, all the adequately preserved biological material was examined similarly after 2, 4 and 12 months. These intervals were chosen on the basis of the time that elapses between the autopsy and the intervals on which toxicological examinations are most often ordered to the Toxicology Laboratory of the Department of Forensic Medicine in Krakow by the Prosecutor’s Office. […]

Data set [2] can be described thus: GC-MS identification of 3-CMC and its metabolites in the person's urine sample after derivatization. The format is in vivo, human. The settings on record: fatal poisoning case; for presence in urine sample: GC-MS after acetylation; for amount present in urine sample: GC-MS after trimethylsilylation. How it is done:
The fluid from the Venflon was acetylated and then analyzed by gas chromatography coupled to mass spectrometry (GC--MS), as described by Synowiec et al. ([8]). Screening analysis was performed using a library developed by Pfleger, Maurer and Weber ([9]), which contains a broad group of compounds, including acetyl or trimethylsilyl derivatives, as well as the authors’ library of SCs ([8]). The analysis was conducted on the day of the autopsy, which was 2 days after the body was discovered.
Following preliminary analytical results indicating the presence of chloromethcathinone (CMC), the liquid from the Venflon further underwent a trimethylsilylation process ([8]) to distinguish the constitutional isomer of CMC.
The same procedure was carried out in the urine sample after SPE, according to the methods described in the authors’ earlier works ([10], [11]).

Data set [3] in a line: Stability study in the authentic autopsy urine sample (HPLC-ESI-MS-MS / HPLC-ESI-MS). The format is in vitro ADME, human. On the procedure: as §1
as §2, with “acetonitrile (v/v). […]” for “acetonitrile (v/v).”
A 6410 triple-quadrupole mass spectrometer (Agilent) with an electrospray ionization (ESI) source, operated under a positive mode, was used. […] The fragmentation parameters of the analyzed compounds are listed in Table I. For the analysis of the selected potential biomarker, dihydro-3-CMC, the total ion current scanning mode was used in the m/z range of 50–650 amu. […]

Details of data set [4]: method as in PMID 30636991. Particulars: cited from earlier work.
Details of data set [5]: method as in PMID 30557825. The settings on record: cited from earlier work.
Details of data set [6]: method as in PMID 30557825. Particulars: cited from earlier work. This is another data set of the same source.
Details of data set [7]: method as in PMID 32407550. The settings on record: cited from earlier work.
The mark [8] stands for this setting: any given storage conditions (4°C, 4°C + HCl, −30°C), 12 months.

In the case of `CNC(C)C(=O)c1cccc(Cl)c1` (centres unmarked) [3-CMC, 1-(3-chlorophenyl)-2-(methylamino)propan-1-one], the “decomposition on storage of the biological material” value in data set [1] (24 hours of storage at 4°C) is on record as “significant decomposition”. Besides, in data set [1] (acidified blood sample, ∼4°C), the “time for which the parent substance could be detected in blood sample” value came to 4 months. For the same compound, in data set [1] (blood stored at −30°C), the “time after which detection in blood sample was still possible” value is given as at least 12 months. Besides, the “detection in blood sample” value in data set [1] (blood stored at ∼4°C, after 2 months) is “no longer detected”. Besides, the “3-CMC concentration in blood sample” value is 580 ng/mL in data set [1] (storage 4°C + HCl, 2 months since autopsy); 150 ng/mL in data set [1] (storage 4°C + HCl, 4 months since autopsy); 0 ng/mL in data set [1] (storage 4°C + HCl, 12 months since autopsy); 0 ng/mL in data set [1] (storage 4°C, 2 months since autopsy); 0 ng/mL in data set [1] (storage 4°C, 4 months since autopsy); 0 ng/mL in data set [1] (storage 4°C, 12 months since autopsy). The “3-CMC concentration in blood sample” value in data set [1] (storage 4°C, 1 day since autopsy (reference point, 24 hours at 4°C)) is recorded as 880 ng/mL; in data set [1] (storage −30°C, 2 months since autopsy), 2,200 ng/mL; in data set [1] (storage −30°C, 4 months since autopsy), 2,500 ng/mL; in data set [1] (storage −30°C, 12 months since autopsy), 1,100 ng/mL; in data set [1] (stored at −30°C (frozen immediately)) it was > 2,000 ng/mL. For the same compound, in data set [2], the “presence in urine sample” value was “presence”. Moreover, in data set [2], the “amount present in urine sample” value is on record as “trace amounts”. Further, the “stability in urine sample” value in data set [3] (after acidification and freezing, investigated period 12 months) is “stable throughout the investigated time period”. Besides, the “detection in urine sample” value in data set [3] (urine pH ∼6, 4°C, after 2 months) was “impossible to detect”.

As for `CNC(C)C(=O)c1ccc(Cl)cc1` (centres unmarked) [4-CMC, 4-chloromethcathinone], in data set [4] (3 days of storage at 4°C, compared to original extraction), the “decrease in concentration in serum sample” value was 65%. Moreover, the “concentration in serum sample” value is listed as “below the LOQ” in data set [4] (113 days (∼3.7 months) after the original extraction); 11.5 ng/mL in data set [4] (day 0); 4.0 ng/mL in data set [4] (day 3, storage at 4°C). The “estimated time for complete degradation in blood” value is listed as 22 days in data set [5] (room temperature); about 4 months in data set [5] (stored at 5°C (refrigerated), blank blood enriched with 4-CMC); 11.6 months in data set [5] (stored at −26°C). Besides, the “half-life in blood sample” value in data set [5] (stored at 5°C) was 24 h. The entries for the “estimated time for complete degradation in urine” value in data set [6] (5°C), in data set [6] (24°C) and in data set [6] (−26°C) were 4.4 months, 24 days and over 3 years, respectively. For the same compound, the “half-life in urine sample” value in data set [6] (urine pH = 5) was about 2.5 months. Moreover, the results for the “decrease in concentration in blood sample” value in data set [7] (3 days at 23°C) and in data set [7] (30 days of storage at 4°C) were 54% and 63%, respectively. Moreover, the “total decay time in blood sample” value in data set [7] (refrigerated storage, blood from an authentic case) was 90 days. Moreover, in data set [7] (stored at −15°C, entire experiment (90 days)), the “stability in blood sample” value was “stable”.

With `CC(=O)NC(C)C(=O)c1cccc(Cl)c1` (centres unmarked) [N-desmethyl-3-CMC-AC], in data set [2], the “presence in urine sample” value was “presence”.

For the compound `CC(=O)NC(C)C(OC(C)=O)c1cccc(Cl)c1` (centres unmarked) [N-desmethyl-dihydro-3-CMC-2AC], the “presence in urine sample” value in data set [2] is “presence”.

On to `CNC(C)C(O)c1cccc(Cl)c1` (centres unmarked) [dihydro-3-CMC], for which the “stability in blood sample” value in data set [1] (setting [8]) was “high stability”. Besides, in data set [2], the “presence in urine sample” value was “mainly” and the “amount present in urine sample” value is listed as “mainly present”. For the same compound, the “stability in urine sample” value in data set [3] (setting [8]) is given as “high stability”.
